# Read-outs that look alike come from different tables or passages of the source.
# Biological target: T1, human TRPA1 (Homo sapiens, UniProt O75762)
# T1 construct: expressed in transfected cells; host or cells: Human embryonic kidney-derived 293T cells, transiently transfected with the pcDNA3.1/zeo(+) human TRPA1 plasmid
# Test: Measurement of TRPA1 antagonist activity (intracellular calcium increase, FLIPR, allylisothiocyanate stimulation)
# Assay type: cell-based
# Conditions: read-out: antagonism hTRPA1
# Excerpt: Measurement of TRPA1 Antagonist Activity
# Human TRPA1 Expression Plasmid
# As cDNA encoding human TRPA1 (GenBank accession No. […]), a commercially available product was purchased (manufactured by Kazusa DNA Research Institute, clone No.: pFN21AB7348, item No.: FHC07217). Using this as a template, full-length human TRPA1 gene was amplified using the primer sequences shown below, by reaction using DNA polymerase (manufactured by Stratagene, trade name: PfuUltra High-Fidelity DNA Polymerase).
# A recognition site (underlined) of restriction enzyme HindIII was added to the 5′ side, and XbaI site (underlined) was added to the 3′ side, and GTT of the template sequence was changed to termination codon TAG (bold). The obtained double stranded DNA was enzyme-digested with HindIII and XbaI, and introduced into a multicloning site of expression plasmid pcDNA3.1/zeo(+) (manufactured by Invitrogen) to give a human TRPA1 expression plasmid.
# Human embryonic kidney-derived 293T cells were cultured in Dulbecco's Modified Eagle Medium containing 10% fetal bovine serum, 10 unit penicillin, and 10 μg streptomycin, plated on a petri dish having a diameter of 10 cm at 3×10^6 cells, and cultured for 24 hr. A medium containing a reduced amount of serum (manufactured by Invitrogen, trade name: OPTI-MEM, 600 μL), a gene insertion reagent (manufactured by Mirus Bio, trade name: Mirus TransIT-293, 18 μL), and human TRPA1 expression plasmid (6 μg) were mixed, the total amount of the mixture was added to the cells on the petri dish to allow for gene transfer. The cells were recovered about 8 hr later, plated on a poly-D-lysine coated 384 well black/clear bottom plate at 7,500-12,000 cells/well, and cultured overnight.
# Measurement of Intracellular Calcium Increase
# The 384 well plate was recovered, and the medium was removed. A calcium-bonded fluorescent indicator (manufactured by Molecular Device, trade name: Calcium4 Assay Kit, 40 μL) dissolved in assay buffer (1×HBSS, 20 mM HEPES, pH 7.2) was added, and the cells were stained in a 37° C. incubator for 1 hr. The cells were taken out at room temperature and left standing for 15 min or more. A test substance (10 μL) was added by a 384 well type dispenser, and the mixture was incubated at room temperature for 10 min. Then, allylisothiocyanate (12.5 μL) at a final concentration of 20 μM was added by a fluorescence imaging plate reader (manufactured by Molecular Device, FLIPR), and changes in the relative fluorescence intensity were measured for 5 min.
# Test Substance Preparation
# The test substance was dissolved in dimethyl sulfoxide and serially diluted with an assay buffer containing 0.1% bovine serum albumin (1×HBSS, 20 mM HEPES, pH 7.2) to a 5-fold concentration of the evaluation concentration. Allylisothiocyanate, which is a known TRPA1 activator, was dissolved in dimethyl sulfoxide to 100 mM, and further diluted 5-fold (100 μM) of the final concentration, like the test substance.
# Calculation of Antagonist Activity
# Under the test substance-free conditions, the maximum variation range of the fluorescence intensity before and after allylisothiocyanate stimulation was defined to be 100% activity rate, and the variation range before and after buffer stimulation was defined as 0% activity rate. The activity rate on addition of the test substance was determined, and the numerical value obtained by subtracting the activity rate from 100 was defined to be an inhibitory rate. 1050, which is the concentration of the test substance necessary for reaching the 50% inhibitory rate, was calculated from the sigmoid approximate curve by a spreadsheet software Excel-Fit.
# [1] = allylisothiocyanate 20 μM stimulation, FLIPR calcium assay
# [2] = 293T cells transfected with human TRPA1, allylisothiocyanate 20 μM, concentration for 50% inhibitory rate
# T1 sequence (O75762 whole entry): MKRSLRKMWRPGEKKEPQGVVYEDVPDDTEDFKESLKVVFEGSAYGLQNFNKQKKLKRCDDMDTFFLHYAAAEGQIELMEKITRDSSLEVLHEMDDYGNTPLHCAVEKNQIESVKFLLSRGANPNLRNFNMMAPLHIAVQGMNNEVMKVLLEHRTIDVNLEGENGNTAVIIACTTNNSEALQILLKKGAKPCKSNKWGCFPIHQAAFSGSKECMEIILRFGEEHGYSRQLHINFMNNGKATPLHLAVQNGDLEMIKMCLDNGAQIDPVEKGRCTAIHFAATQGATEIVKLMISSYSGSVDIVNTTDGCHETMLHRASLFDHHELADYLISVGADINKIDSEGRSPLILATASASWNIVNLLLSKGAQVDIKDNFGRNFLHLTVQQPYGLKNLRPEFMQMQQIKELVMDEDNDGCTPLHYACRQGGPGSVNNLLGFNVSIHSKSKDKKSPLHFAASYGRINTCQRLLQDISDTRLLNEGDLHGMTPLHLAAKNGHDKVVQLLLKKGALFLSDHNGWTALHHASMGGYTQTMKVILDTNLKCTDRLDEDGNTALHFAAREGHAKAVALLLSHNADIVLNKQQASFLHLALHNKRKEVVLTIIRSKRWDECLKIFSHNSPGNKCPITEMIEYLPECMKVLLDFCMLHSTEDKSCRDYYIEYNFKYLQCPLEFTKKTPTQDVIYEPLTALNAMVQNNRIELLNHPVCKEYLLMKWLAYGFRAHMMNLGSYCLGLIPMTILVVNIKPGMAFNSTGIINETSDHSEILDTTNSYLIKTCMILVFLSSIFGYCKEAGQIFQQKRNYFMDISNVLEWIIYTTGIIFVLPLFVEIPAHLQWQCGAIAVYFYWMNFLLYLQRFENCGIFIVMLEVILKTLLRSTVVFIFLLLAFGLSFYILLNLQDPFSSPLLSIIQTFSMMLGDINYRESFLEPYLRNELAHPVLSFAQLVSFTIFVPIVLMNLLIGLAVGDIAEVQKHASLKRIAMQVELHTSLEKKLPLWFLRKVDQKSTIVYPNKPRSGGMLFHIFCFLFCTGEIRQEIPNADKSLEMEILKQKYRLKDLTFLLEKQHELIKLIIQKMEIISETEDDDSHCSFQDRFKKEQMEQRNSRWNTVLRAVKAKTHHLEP
IC50 [1] [nM],IC50 [2] [nM],Compound
1900,–,"O=C(NCc1cccc(OCc2ccc(C(F)(F)F)cc2)c1)[C@@H]1[C@H]2C[C@H]2CN1S(=O)(=O)c1ccc(F)cc1 [Example 171, (1R,4S,5S)-3-(4-fluorophenyl)sulfonyl-N-[[3-[[4-(trifluoromethyl)phenyl]methoxy]phenyl]methyl]-3-azabicyclo[3.1.0]hexane-4-carboxamide]"
–,3500,O=C(NCc1ccc(COc2ccccc2)cc1)[C@@H]1CCCN1S(=O)(=O)c1cccc(F)c1 [Example 85]
–,15,"O=C(NCc1cccc(Oc2ccc(C(F)(F)F)cc2)c1)[C@@H]1CCCN1S(=O)(=O)c1ccc(Cl)s1 [Example 15, (2S)-1-(5-chlorothiophene-2-sulfonyl)-N-({3-[4-(trifluoro-methyl)phenoxy]phenyl}methyl)pyrrolidine-2-carboxamide]"
600,–,"O=C(NCc1cccc(OCc2ccc(C(F)(F)F)cc2)c1)[C@@H]1[C@@H](O)CCN1S(=O)(=O)c1ccco1 [Example 179, (2S,3S)-1-(2-furylsulfonyl)-3-hydroxy-N-[[3-[[4-(trifluoromethyl)phenyl]methoxy]phenyl]methyl]pyrrolidine-2-carboxamide]"
280,–,"O=C(NCc1cccc(OCc2ccc(C(F)(F)F)cc2)c1)[C@@H]1CCCN1S(=O)(=O)c1cnn(C(F)F)c1 [Example 205, (2S)-1-[1-(difluoromethyl)pyrazol-4-yl]sulfonyl-N-[[3-[[4-(trifluoromethyl)phenyl]methoxy]phenyl]methyl]pyrrolidine-2-carboxamide]"
–,120,O=C(NCc1cccc(OCc2ccccc2)c1)[C@@H]1CCN1S(=O)(=O)c1ccc(Cl)s1 [Example 109]
190,–,"O=C(NCc1cccc(OCc2ccc(C(F)(F)F)cc2)c1)[C@@H]1CCCN1S(=O)(=O)n1ccnc1 [Example 220, (2S)-1-imidazol-1-ylsulfonyl-N-[[3-[[4-(trifluoromethyl)phenyl]methoxy]phenyl]methyl]pyrrolidine-2-carboxamide]"
87,–,"O=C(NCc1cccc(OCc2ccc(C(F)(F)F)cc2)c1)[C@@H]1CCCN1S(=O)(=O)c1cc2ccccc2s1 [Example 208, (2S)-1-(benzothiophen-2-ylsulfonyl)-N-[[3-[[4-(trifluoromethyl)phenyl]methoxy]phenyl]methyl]pyrrolidine-2-carboxamide]"
36,–,"O=C(NCc1cccc(OCc2ccc(C(F)(F)F)cc2)c1)[C@@H]1CCCN1S(=O)(=O)c1ccco1 [Example 176, (2S)-1-(2-furylsulfonyl)-N-[[3-[[4-(trifluoromethyl)phenyl]methoxy]phenyl]methyl]pyrrolidine-2-carboxamide]"
100,–,"O=C(NCc1cccc(OCc2ccccc2)c1)[C@@H]1CCCN1S(=O)(=O)c1ccco1 [Example 181, (2S)-N-[(3-benzyloxyphenyl)methyl]-1-(2-furylsulfonyl)pyrrolidine-2-carboxamide]"
–,210,O=C(NCc1ccc(Oc2ccc(C(F)(F)F)cc2)cc1)[C@@H]1CCCN1S(=O)(=O)c1ccc(Cl)s1 [Example 2]
440,–,CC(C)(C)c1ccc(COc2cccc(CNC(=O)[C@@H]3CCCN3S(=O)(=O)c3ccc(F)cc3)c2)cc1 [Example 122]
–,550,"COc1cccc(OCc2ccc(CNC(=O)[C@@H]3CCCN3S(=O)(=O)c3ccc(Cl)s3)cc2)c1 [Example 54, (2S)-1-(5-chlorothiophene-2-sulfonyl)-N-({4-[(3-methoxy-phenoxy)methyl]phenyl}methyl)pyrrolidine-2-carboxamide]"
27,–,"O=C(NCc1cccc(OCc2ccc(C(F)(F)F)cc2)c1)[C@@H]1CCCN1S(=O)(=O)c1ccoc1 [Example 177, (2S)-1-(3-furylsulfonyl)-N-[[3-[[4-(trifluoromethyl)phenyl]methoxy]phenyl]methyl]pyrrolidine-2-carboxamide]"
8.6,–,"O=C(NCc1cccc(OCc2ccc(C(F)(F)F)cc2)c1)[C@@H]1CCCN1S(=O)(=O)c1ccsc1 [Example 178, (2S)-1-(3-thienylsulfonyl)-N-[[3-[[4-(trifluoromethyl)phenyl]methoxy]phenyl]methyl]pyrrolidine-2-carboxamide]"
38,–,"O=C(NCc1cccc(OCc2cccc(N3CCCCC3)c2)c1)[C@@H]1CCCN1S(=O)(=O)c1ccc(F)cc1 [Example 126, (2S)-1-(4-fluorophenyl)sulfonyl-N-[[3-[[3-(1-piperidyl)phenyl]methoxy]phenyl]methyl]pyrrolidine-2-carboxamide]"
–,240,"O=C(NCc1cccc(Oc2ccccc2)c1)[C@@H]1CCCN1S(=O)(=O)c1ccc(Cl)s1 [Example 14, (2S)-1-(5-chlorothiophene-2-sulfonyl)-N-[(3-phenoxyphenyl)methyl]pyrrolidine-2-carboxamide]"
49,–,"O=C(NCc1cccc(OCc2ccc(C(F)(F)F)cc2)c1)[C@@H]1C[C@@H]2C[C@@H]2N1S(=O)(=O)c1ccc(F)cc1 [Example 174, (1S,3S,5S)-4-(4-fluorophenyl)sulfonyl-N-[[3-[[4-(trifluoromethyl)phenyl]methoxy]phenyl]methyl]-4-azabicyclo[3.1.0]hexane-3-carboxamide]"
–,80,O=C(NCc1cccc(OCc2ccccc2C(F)(F)F)c1)[C@@H]1CCCN1S(=O)(=O)c1ccc(Cl)s1 [Example 104]
–,430,O=C(NCc1ccc(COc2ccccc2)cc1)[C@@H]1C=CCN1S(=O)(=O)c1ccc(Cl)s1 [Example 83]
–,45,"O=C(NCc1cccc(Oc2cccc(Cl)c2)c1)[C@@H]1CCCN1S(=O)(=O)c1ccc(Cl)s1 [Example 21, (2S)-N-{[3-(3-chlorophenoxy)phenyl]methyl}-1-(5-chloro-thiophene-2-sulfonyl)pyrrolidine-2-carboxamide]"
–,64,"O=C(NCc1ccnc(Oc2ccc(C(F)(F)F)cc2)c1)[C@@H]1CCCN1S(=O)(=O)c1ccc(Cl)s1 [Example 39, (2S)-1-(5-chlorothiophene-2-sulfonyl)-N-({2-[4-(trifluoro-methyl)phenoxy]-4-pyridyl}methyl)pyrrolidine-2-carboxamide]"
3900,–,"COc1ccccc1S(=O)(=O)N1CCC[C@H]1C(=O)NCc1cccc(OCc2ccc(C(F)(F)F)cc2)c1 [Example 198, (2S)-1-(2-methoxyphenyl)sulfonyl-N-[[3-[[4-(trifluoromethyl)phenyl]methoxy]phenyl]methyl]pyrrolidine-2-carboxamide]"
–,24,O=C(NCc1cccc(OCc2ccc(C(F)(F)F)cc2)c1)[C@@H]1C=CCN1S(=O)(=O)c1ccc(F)cc1 [Example 111]
1200,–,"O=C(NCc1cccc(OCc2ccc(C(F)(F)F)cc2)c1)[C@@H]1CCCN1S(=O)(=O)c1ccc2ncccc2c1 [Example 207, (2S)-1-(6-quinolylsulfonyl)-N-[[3-[[4-(trifluoromethyl)phenyl]methoxy]phenyl]methyl]pyrrolidine-2-carboxamide]"
–,500,"Cc1cccc(OCc2ccc(CNC(=O)[C@@H]3CCCN3S(=O)(=O)c3ccc(Cl)s3)cc2)c1 [Example 53, (2S)-1-(5-chlorothiophene-2-sulfonyl)-N-({4-[(3-methyl-phenoxy)methyl]phenyl}methyl)pyrrolidine-2-carboxamide]"
35,–,"O=C(NCc1cccc(Oc2ccc(C(F)(F)F)cc2)c1)[C@@H]1CCCN1S(=O)(=O)c1ccsc1 [Example 190, (2S)-1-(3-thienylsulfonyl)-N-[[3-[4-(trifluoromethyl)phenoxy]phenyl]methyl]pyrrolidine-2-carboxamide]"
120,–,"O=C(NCc1cccc(OCc2ccccc2F)c1)[C@@H]1CCCN1S(=O)(=O)c1ccc(F)cc1 [Example 128, (2S)-N-[[3-[(2-fluorophenyl)methoxy]phenyl]methyl]-1-(4-fluorophenyl)sulfonyl-pyrrolidine-2-carboxamide]"

# Source: patent US20150284375A1 (AJINOMOTO CO., INC., priority 2012, published 2015)
